Source: patent publication US20100021555A1, “Compositions containing high omega-3 and low saturated fatty acid levels” (priority 2004, published 2010)
Each block holds one compound with its values, some of them ahead of it.

Experiments:
dairy cows = conditions: cited from earlier work
bovine hepatocytes = bovine hepatocytes supplemented in vitro; cited from earlier work
rumen microorganisms = conditions: in vitro; cited from earlier work
delta-9-desaturase = test: Milkfat substrate/product ratios (SFA : monounsaturated counterpart), proxy for delta-9-desaturase activity; type: in vivo, Friesian dairy cows; conditions: for C:18:C18:1 ratio in milkfat: baseline 0.49; for C:10:C10:1 ratio in milkfat: baseline 12.66; for C:14:C14:1 ratio in milkfat: baseline 14.93; for C:16:C16:1 ratio in milkfat: baseline 17.40
Text: (§1) Ethical approval was obtained from the University of Auckland Animal Ethics Committee to undertake an pilot supplementation study. The study involved supplementing the diets of four Friesian dairy cows with single daily dose of 40 and 160 of ethyl-eicospaentaenoic acid (>98% purity) for nine days. Cows were divided into a high-to-low dose (HTLD) group (n=2) with animals supplemented with 160 grams of EPA at day one with the dose decreasing by 15 grams each day to reach 40 grams at day nine and a low-to-high dose (LTHD) group (n=2) with animals supplemented with 40 grams on day one the dose increasing by 15 grams each day to reach 160 grams at day nine. Feeding and milk sampling was undertaken between 19 and 29 August 2004 at a dairy farm in West Aucldand under the supervision of a supervising veterinarian with experience in caring for the herd. Supplements were given by drenching gun once daily in the morning subsequent to milking. Prior to supplementation each day duplicate 50 ml samples of milk were collected from each animal and stored in 100 ml polyethylene containers in a temperature controlled minus 20 deg C. freezer within one hour of collection. Milk samples were thawed and fatty acids extracted and prepared for analysis. Milkfat was methylated by dissolving in hexane and reaction with 2 molar KOH methanol. 20 milligrams of fat dissolved in 2 mls in N-Hexane then 20 micro-litres of 2 molar KOH methanol was added left to stand for 3 seconds and vortexed vigorously for 30 seconds. The mixture was then allowed to stand for 6 minutes before being neutralized to methyl red with 2 molar HCl in water before being vortexed again and centrifuged (modified method from agilent website also reported in Terry Knight publications) Knight T. W., et al., New Zealand Journal Of Agricultural Research 47:3,: 287-297 SEP (2004). An aliquot of hexane was then taken and analysed by GCFID 6890 (Agilent Corp) with 105 meter 0.25 mm RTX2330 90% bis cyanoprofile column (Restek) and 0.25 micron film thickness. Fatty acids were identified by retention time in comparison with a 37-component mixture (Suplco). Peak areas were corrected for peak response using theoretical response factors (AOCS reference). Results were reported as area under curve.
Saturated Fatty Acids: A reduction in dietary amounts of certain saturated fatty acids (SFAs), including in particular the major milk fatty acid C16:0, a has been recommended by health experts (WHO Technical Report Series 916, WHO Geneva (2003)). Under normal circumstances about 50% of dietary C16:0 is taken up by the mammary gland. […] This decrease in milkfat C16:0 is unlikely to be explained by altered feeding behavior during the study given corresponding changes were not observed in other SFAs. In order to investigate the contribution of further metabolism of C16:0 in the mammary gland to palmitoleic acid (C16:1) we compared substrate/product ratios in milkfat for a number of SFAs and their monounsaturated fatty acid counterparts. These ratios are considered to be a proxy measure for the activity of the delta-9-desaturase activity enzyme. (see Table 1 below).

lactating dairy cows = test: Pilot supplementation study in lactating dairy cows: milk fatty acids by GC; type: in vivo, Friesian dairy cows
Text: as §1
A permutation based method of statistical analysis was used to assess FA baseline composition with reference to a reference baseline derived from population of four thousand one hundred NZ Fresian dairy cows. Each fatty acid peak measured in the feeding trial was logged (log base 2), and had the day 0 (baseline) measurement subtracted to report a change from baseline at each time point. Significance of the changes in four-cow and two-cow means was tested by randomly selecting many groups of two or four cows from the herd of 4100 animal reference dataset and comparing the feeding trial results against the mean of logged measurements from the larger reference population. This produced baseline distributions for each group size which were centered at zero to match the baseline centered means from the animals in the feeding trial. Significance thresholds were then adjusted for the number of fatty acid peaks being investigated, and the number of measurements taken.

Structure (SMILES): CC/C=C\C/C=C\C/C=C\CCCCCCCC(=O)O [ALA, alpha linolenic acid]
EPA in milkfat (dairy cows; duodenal infusion of 500 grams per day of ALA): no concomitant increase
level of ALA in milkfat (dairy cows; duodenal infusion of 500 grams per day): 14%

Structure (SMILES): CC/C=C\C/C=C\C/C=C\C/C=C\C/C=C\CCCC(=O)O [EPA, 5,8,11,14,17,-eicosapentaenoic acid (20:5n-3)]
oxidation of C16:0 (bovine hepatocytes): significant increase
biohydrogenation of linoleic (LA C18:2) and alpha-linolenic (ALA C18:3) acid (rumen microorganisms): inhibition

C:10:C10:1 ratio, % of baseline (delta-9-desaturase; Day Eleven): 106.4 % of baseline
C:14:C14:1 ratio, % of baseline (delta-9-desaturase; Day Eleven): 110.6 % of baseline
C:16:C16:1 ratio, % of baseline (delta-9-desaturase; Day Eleven): 113.4 % of baseline
C:18:C18:1 ratio, % of baseline (delta-9-desaturase; Day Eleven): 98 % of baseline
C:18:C18:1 ratio in milkfat (delta-9-desaturase; Day Eleven): 0.48
C:10:C10:1 ratio in milkfat (delta-9-desaturase; Day Eleven): 13.46
C:14:C14:1 ratio in milkfat (delta-9-desaturase; Day Eleven): 16.51
C:16:C16:1 ratio in milkfat (delta-9-desaturase; Day Eleven): 19.67
C:10:C10:1 ratio, % of baseline (delta-9-desaturase; Day Five): 82.5 % of baseline
C:14:C14:1 ratio, % of baseline (delta-9-desaturase; Day Five): 83.3 % of baseline
C:16:C16:1 ratio, % of baseline (delta-9-desaturase; Day Five): 90.6 % of baseline
C:18:C18:1 ratio, % of baseline (delta-9-desaturase; Day Five): 65.3 % of baseline
C:10:C10:1 ratio in milkfat (delta-9-desaturase; Day Five, across both groups): 10.45
C:18:C18:1 ratio in milkfat (delta-9-desaturase; Day Five): 0.32
C:14:C14:1 ratio in milkfat (delta-9-desaturase; Day Five): 12.44
C:16:C16:1 ratio in milkfat (delta-9-desaturase; Day Five): 15.76
day by which milk DPA rose significantly from baseline (lactating dairy cows; HTLD group): three
day by which milk EPA rose significantly from baseline (lactating dairy cows; HTLD group): two
EPA as a percentage of total fatty acids in milk, peak (lactating dairy cows; HTLD group (160 to 40 g/day), peak at day five): 1.55 % TFA
DPA as a percentage of total fatty acids in milk, peak (lactating dairy cows; HTLD group, peak at day six): 0.41 % TFA
day by which milk DPA rose significantly from baseline (lactating dairy cows; LTHD group): seven
day by which milk EPA rose significantly from baseline (lactating dairy cows; LTHD group): five
EPA as a percentage of total fatty acids in milk, peak (lactating dairy cows; LTHD group (40 to 160 g/day), peak at day nine): 1.29 % TFA
DPA as a percentage of total fatty acids in milk, peak (lactating dairy cows; LTHD group, peak at day eleven): 0.38 % TFA
DHA in milk (lactating dairy cows; undetectable at baseline, throughout the study): remained unchanged
Structure (SMILES): CC/C=C\C/C=C\C/C=C\C/C=C\C/C=C\CCCC(=O)OCC [ethyl-eicospaentaenoic acid]
milkfat stearic acid (C18:0) (lactating dairy cows; already significant by day three): dramatic reduction
maximum reduction of % TFA C16:0 in milk (lactating dairy cows; day nine, across both groups): 15.44 % of baseline levels
% TFA C16:0 in milk (lactating dairy cows; day nine, across both groups, baseline 36.78): 31.1 % TFA
CLA in milk, increase over baseline levels at maximum (lactating dairy cows; in vivo): 375%
CLA in milk, maximum level (lactating dairy cows; in vivo): 4.2 % of total fatty acids
CLA in milk, mean increase over baseline levels (lactating dairy cows; mean): 274%
